Bridges are numbered along the chain shown (N, C = ends). Where no end group is shown, it is not given here.
Tests used:
[1] = test system: LRO4; test: Chemiluminescent ELISA, binding of LRO4 to plated or captured peptides; design: species or system murine; conditions: peptides directly plated at increasing concentrations; LRO4 5 μg/mL
Protocol: (§1) Binding of mAb as well as plasma Abs to respective antigens was measured by chemiluminescent ELISA. Antigens were coated at 5 μg/mL in PBS/EDTA (pH 7.4). Synthetic peptides were directly coated at 10 μg/mL (P1) or 5 μg/mL (P2) in 0.1M NaHCO3 buffer (pH 8.6), unless indicated differently. Biotinylated peptides were immobilized at indicated concentrations in 0.1M NaHCO3 buffer (pH 8.6) on wells pre-coated with 10 μg/mL neutravidin (Pierce, Rockford, Ill., USA). Ab binding was measured using alkaline phosphatase (AP) labeled secondary Abs (described below) followed by chemiluminescent detection. For the detection of human autoAbs, a 1:400 plasma dilution was used. For human assays, internal controls consisting of high and low standard plasma samples were included on each microtiter plate to detect potential variations between microtiter plates. The intra-assay coefficients of variation for all assays were 10 to 14%.
(§2) The following secondary Abs were used: Alkaline Phosphatase (AP)-labeled goat anti-mouse IgM (μ-chain specific), IgG (γ-chain specific), IgG1 (Sigma-Aldrich) and IgG2c (Southern Biotech). For the detection of human autoAbs AP-labeled goat anti human IgG (γ-chain specific) and IgM (μ-chain specific) (Sigma-Aldrich) were used. Biotin-conjugated Abs were detected with AP-conjugated neutravidin (1:10,000; Pierce).

[2] = test system: LRO4; test: Competition immunoassays for LRO4 binding; design: species or system murine; conditions: 0.5 μg/mL LRO4, increasing concentrations of soluble competitor; for competition for LRO4 binding to captured biotinylated P2: 100 ng/mL captured P2; for competition for LRO4 binding to captured biotinylated P1: 100 ng/mL captured P1; for competition for LRO4 binding to coated MAA-BSA: 0.5 μg/mL coated MAA-BSA
Protocol: (§3) The specific binding of LRO4 to mimotopes was determined by competition immunoassays. Fifty μl of 0.5 μg/mL MAA-BSA or 100 ng/mL of biotinylated peptides were plated as described above. LRO4 antibody was incubated in TBS-1% BSA with or without increasing concentrations of competitors (BSA, MAA-BSA, P1, P2 and control peptide) for 30 minutes at RT. Binding of LRO4 was determined by chemiluminescent ELISA. The specificity of human plasma Ab binding to P1 was determined in a similar manner. In preliminary experiments, aliquots of pooled plasma samples (n=26) from a published cohort of healthy subjects were diluted in 1% BSA-TBS to yield a limiting plasma dilution. Diluted plasma (1:1,000) and increasing concentrations of competitors were incubated overnight at 4° C. Samples were then centrifuged at 15,800 g for 45 minutes at 4° C. to pellet immune complexes, and supernatants were analyzed for binding to plated P1 (10 μg/mL) by chemiluminescent ELISA.

[3] = test system: apoptotic Jurkat T-cells; test: Flow cytometry, LRO4 binding to apoptotic Jurkat T-cells; format: cell-based; conditions: UV-induced apoptotic Jurkat T-cells; increasing concentrations of soluble peptide
Protocol: Binding of LRO4 IgM to apoptotic Jurkat T-cells was assessed by flow cytometry. Apoptosis of Jurkat cells was induced by UV irradiation (UV Stratalinker, Stratagene, USA) at 20 mJ/cm^2, followed by further incubation of the cells in serum free medium for 14-16 hours. After washing in FACS buffer (PBS with 0.1% BSA) 10^6 cells were incubated with 1 μg LRO4 in 100 μl FACS buffer for 30 minutes at 4° C. In parallel experiments, cells were incubated with LRO4 in the presence of increasing concentrations of P1, P2, and an irrelevant control peptide. Following a washing step, cells were stained with FITC-labeled anti-mouse IgM (II/41, BD Biosciences-Pharmingen) in 100 μL staining buffer for 30 minutes at 4° C. in darkness and washed again. Thereafter, cells were incubated with PE-labeled Annexin-V and 7-AAD (BD Bioscience-Pharmingen) in Annexin-V binding buffer for 15 minutes and immediately analyzed by flow cytometry using a BD LSR II analyzer (BD Bioscience, San Jose, Calif., USA). More than 5.0×10^4 cells were acquired per sample, and data analysis was performed using FlowJo software (Tree Star Inc, San Carlos, Calif., USA).

[4] = test system: PC-specific IgM mAb EO6; test: Chemiluminescent ELISA, binding of EO6 to plated peptides; design: species or system murine; conditions: EO6 5 μg/mL; peptides coated at 5-10 μg/mL
Protocol: (A) ELISA for the binding of LRO4 to BSA, MAA-BSA, the P2 mimotope (ACNNSNMPLC-GGGS) (SEQ ID NO:3) and a scrambled peptide (ACSPNLNMNC-GGGS) (SEQ ID NO:4) of P2 (Scr.P2). Peptides were coated at 20 μg/ml, BSA and MAA-BSA at 5 μg/ml, and binding of indicated concentrations of LRO4 was determined by chemiluminescent ELISA as described in Methods. (B) ELISA for binding of LRO4 and EO6. P1, P2, BSA, MAA-BSA, nLDL, MDA-LDL, and CuOx-LDL were coated at 5-10 μg/mL. Binding of LRO4 and EO6 (both at 5 μg/mL) was determined by chemiluminescent ELISA. (C) Immunocompetition assay for the specificity of LRO4. Binding of 0.5 μg/mL LRO4 to 100 ng/mL captured biotinylated peptides P2 was measured by ELISA in the presence of increasing concentrations of P2 and scrambled P2. […]
Binding of mAb as well as plasma Abs to respective antigens was measured by chemiluminescent ELISA. […] Ab binding was measured using alkaline phosphatase (AP) labeled secondary Abs (described below) followed by chemiluminescent detection. […]

[5] = test system: human MDA-specific IgG Fab IK17; test: ELISA for binding of the human monoclonal Fab IK17; conditions: antigens coated; biotinylated IK17 at increasing concentrations
Protocol: ELISA for binding of the human monoclonal Fab IK17. P1, P2, and MAA-BSA were coated onto microtiter plates, and biotinylated IK17 (Biot.IK17) was added at indicated concentrations. Binding was detected by chemiluminescent detection using AP-conjugated neutravidin. Values are given as relative light units (RLU) per 100 ms and represent the mean±SD of triplicate determinations.
as §1, §2

[6] = test system: human plasma IgG and IgM autoAbs; test: Chemiluminescent ELISA of human plasma autoAbs to coated mimotopes; format: binding; conditions: n=18 healthy volunteers, plasma 1:400
Protocol: as §1, with “For human assays, internal controls consisting of high and low standard plasma samples were included on each microtiter plate to detect potential variations between microtiter plates. The intra-assay coefficients of variation for all assays were 10 to 14%.” left out
The following secondary Abs were used: Alkaline Phosphatase (AP)-labeled goat anti-mouse IgM (μ-chain specific), IgG (γ-chain specific), IgG1 (Sigma-Aldrich) and IgG2c (Southern Biotech). […] Biotin-conjugated Abs were detected with AP-conjugated neutravidin (1:10,000; Pierce).
Human plasma samples from two independent studies were analyzed for the presence of anti-peptide Abs. […] For these studies, autoAb titers to MDA-LDL as the antigen have already been reported, to allow ready comparisons to the new data generated here. […]
Statistical analyses were performed with GraphPad Prism 5 for Windows (Graphpad Software, Inc., San Diego, Calif.). […] For continuous variables, differences were evaluated by one-way analysis of variances (ANOVA). […]

[7] = test system: human plasma IgM and IgG Abs; test: Immunocompetition assay, human plasma Ab binding to plated P1; conditions: pooled human plasma 1:1,000; increasing concentrations of soluble competitor
Protocol: as §3

| binding of LRO4 to plated peptides [1] | competition for LRO4 binding to captured biotinylated P2 [2] | competition for LRO4 binding to captured biotinylated P1 [2] | binding of EO6 to plated peptides [4] | competition for LRO4 binding to coated MAA-BSA [2] | binding of IK17 [5] | inhibition of binding of IgM and IgG Abs to plated P1 [7] | Substance | inhibition of LRO4 binding to apoptotic cells [3] | IgG and IgM titers in plasma of healthy volunteers [6] |
| --- | --- | --- | --- | --- | --- | --- | --- | --- | --- |
| not recognized by LRO4 | had no effect |  |  |  |  |  | ACSPNLNMNC (ACSPNLNMNCGGGS-NH2; cysteine pairing not given here) [scrambled peptide of P2, reference compound] |  |  |
|  | had no effect | had no effect |  |  |  |  | IMGVGAVGAGAI (Control peptide) [irrelevant control peptide, reference compound] | not |  |
| bound by LRO4 in a dose dependent manner | fully competed | fully competed | did not react | effectively competed | in a dose-dependent manner |  | ACNNSNMPLC (disulfide 2-10 (inferred); not fully specified (C-terminus)) [P2] | fully inhibited | Plasma of all individuals contained both IgG and IgM titers |
|  | fully competed | fully competed |  | effectively competed | bound | nearly completely inhibited | MAA-BSA: malondialdehyde-acetaldehyde (MAA)-modified BSA [reference compound] |  |  |
| bound by LRO4 in a dose dependent manner | did not compete | did not compete | did not react | did not have an effect | in a dose-dependent manner |  | HSWTNSWMATFL (not fully specified (C-terminus)) [P1] |  | Plasma of all individuals contained both IgG and IgM titers |

From patent US20150056209A1, “PEPTIDE MIMOTOPES TO OXIDATION SPECIFIC EPITOPES” (The Regents of the University of California, priority 2012, published 2015)
